Reference: US5434182A (priority 1993, dated 1995)
Values joined by “and” are separate entries in the source; they are usually repeats but may differ in a detail not shown here. Equal values may be shown once. Read-outs that look alike come from different tables or passages of the source.

Tests used:
VSV [1] = assay: microbe, parasite or virus in culture; assay type: cell-based, vesicular stomatitis virus; settings: Vesicular stomatitis virus
VSV [2] = assay: microbe, parasite or virus in culture; assay type: cell-based, vesicular stomatitis virus; settings: for Reduction in VSV titer: 10 mM sodium taurocholate, human plasma; for log reduction at 4000 µM / log reduction at 7500 µM / log reduction at 15000 µM: Vesicular stomatitis virus, read-out: Reduction in VSV titer
VSV [3] = assay: microbe, parasite or virus in culture; assay type: cell-based, vesicular stomatitis virus strain Indiana; settings: for minimal effective concentration: read-out: Lowest concentration causing ≥3.0 log10 reduction in virus titer
Solubility = assay type: physicochemical; settings: vs 1-monodecanoyl-rac-glycerol
Total White Blood Cells = assay: Stability of white blood cells in whole human blood to added lipid; assay type: cell-based; set-up: unit not given here; settings: 15 mM, control 6.4
Excerpt: Further testing has shown the effect of monoglyceride esters and ether on the total white blood cell concentration in whole human blood.

Red Blood Cells = assay: Stability of red blood cells in whole human blood to added monoglyceride; assay type: cell-based; settings: 3 mg/ml
Excerpt: Effect of Added Monoglyceride on RBCs in Human Blood.

HSV-1 = assay: microbe, parasite or virus in culture; assay type: cell-based, herpes simplex virus type 1 strain MacIntyre; settings: Human alphaherpesvirus 1, 0.5 h; 0.5 mg/ml, 37° C., 30 min; read-out: Reduction of virus titer, HSV-1
Group B streptococcus = assay: Inactivation of bacteria by monoglycerides, Group B streptococcus; assay type: cell-based; settings: 2 mg/ml, read-out: Reduction of bacterial concentration, Group B streptococcus
[4] = read-out: Reduction in VSV Titer, 7.5 mM, 0 mM sodium taurocholate, human serum
[5] = read-out: Reduction in VSV Titer, 7.5 mM, 2 mM sodium taurocholate, human serum
[6] = read-out: Reduction in VSV Titer, 7.5 mM, 4 mM sodium taurocholate, human serum
[7] = read-out: Reduction in VSV Titer, 7.5 mM, 6 mM sodium taurocholate, human serum
[8] = read-out: Reduction in VSV Titer, 7.5 mM, 8 mM sodium taurocholate, human serum
[9] = read-out: Reduction in VSV Titer, 7.5 mM, 10 mM sodium taurocholate, human serum
[10] = read-out: Reduction in VSV Titer, 7.5 mM, 12 mM sodium taurocholate, human serum
[11] = Vesicular stomatitis virus, 0.5 h
[12] = Vesicular stomatitis virus, 0.5 h, read-out: Reduction of virus titer, VSV

| SMILES | log reduction at 7500 µM (VSV [1]; [4]) | log reduction at 7500 µM (VSV [1]; [5]) | log reduction at 7500 µM (VSV [1]; [6]) | log reduction at 7500 µM (VSV [1]; [7]) | log reduction at 7500 µM (VSV [1]; [8]) | log reduction at 7500 µM (VSV [1]; [9]) | log reduction at 7500 µM (VSV [1]; [10]) | Reduction in VSV titer (VSV [2]; 4 mM) | Reduction in VSV titer (VSV [2]; 7.5 mM) | Reduction in VSV titer (VSV [2]; 15 mM) | log reduction at 4000 µM (VSV [2]) | log reduction at 7500 µM (VSV [2]) | log reduction at 15000 µM (VSV [2]) | minimal effective concentration (VSV [3]; [11]) | Total White Blood Cells (Total White Blood Cells) | further results |
| --- | --- | --- | --- | --- | --- | --- | --- | --- | --- | --- | --- | --- | --- | --- | --- | --- |
| CCCCCCCC(=O)OCC(O)CO (racemic) [Monocaprylin (8:0), 1-Monocapryloyl-rac-glycerol] | ≥ 1 | ≥ 3 | 4 | ≥ 5 | ≥ 5 | ≥ 5 | ≥ 5 | 2.0 log10 | ≥ 4.0 log10 | ≥ 4.0 log10 | 0 | 1 | 2 | 2000 µg/mL and 9000 µM | 2.4 | log reduction at 2000 µg/mL (VSV [3]; [12]): ≥ 4; solubility in words (Solubility): more soluble |
| CCCCCCCCCC(=O)OCC(O)CO (racemic) [Monocaprin (10:0), 1-Monodecanoyl-rac-glycerol] | 1 | ≥ 5 | ≥ 5 | ≥ 5 | ≥ 5 | ≥ 5 | ≥ 5 | 1.0 log10 | ≥ 4.0 log10 | ≥ 4.0 log10 | 0 | 1 | ≥ 4 | 500 µg/mL and 2000 µM | 0.7 | lysis of RBCs in whole blood (Red Blood Cells): does not lyse RBCs in whole blood; log reduction at 500 µg/mL (VSV [3]; [12]): ≥ 4; active concentration relative to corresponding free acids (VSV [3]; monoglyceride vs free acid): ten times lower; log reduction at 500 µg/mL (HSV-1): ≥ 3.7; log reduction at 2000 µg/mL (Group B streptococcus): 4.5 |
